Source: US4098823A, “Monospiroalkyl derivatives of prostaglandins” (Miles Laboratories, Inc., priority 1977, dated 1978)

Columns and labels:
[1] = test system: Blood Pressure and Heart Rate; test: Effects on Blood Pressure and Heart Rate in the Anesthetized Cat; type: in vivo; settings: Felis catus, intravenous, 0.01 to 10.0 mcg/kg, scored only on hypotension, read-out: Test D Activity Value (ED50 mmHg, decrease in blood pressure)
Summary of the method: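 Cats of either sex anesthetized with pentobarbital sodium (35 mg/kg i.v.) plus barbital sodium (100 mg/kg i.v.), femoral arterial pressure and ECG-driven heart rate recorded. Compound given i.v. at one-log increasing doses, 0.01–10.0 mcg/kg, every 10 min. ED50 mmHg (dose lowering blood pressure by 50 mmHg) derived graphically from hypotension.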

rabbit aortic strip = test: Cascade Assay, aorta (smooth muscle stimulant effect); type: cell-based; settings: superfused, 50% of maximum (PGA2)
Summary of the method: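 Rabbit aortic strip (4 g tension), rat stomach fundus, rat colon and chick rectum (1 g) in cascade, superfused at 10 ml/min with 37° C Krebs containing cholinergic, adrenergic, serotonin and histamine blockers. Doses of 0.001–100,000 ng dripped on at 10–20 min intervals; maximal tension rise gave graphical ED50 per tissue.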

Rat Uterus = test: Effects on the Rat Uterus in Vitro; type: cell-based; settings: Rattus norvegicus; in vitro, 29° C; response 50% that of carbachol; read-out: Test F Rat Uterus, Activity Value (ED50)
Summary of the method: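 Uterine segments came from rats (140–160 g) given 1 mg/kg diethylstilbestrol s.c. 18 h earlier. Tissue was held isometrically at 1 g tension in de Jalon solution at 29 °C, gassed with 95% O2/5% CO2. Compound was tested at 0.001–10 mcg/ml in log steps, every 10 min with washes, and ED50 was derived graphically as 50% of the second carbachol (1 mcg/ml) response.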

EC50 (Rat Uterus): > 10 µg/mL
Compound: COC(=O)CCCCCC[C@H]1C(=O)C[C@@H](O)[C@@H]1/C=C/[C@H](O)C1CC2(CCC2)C1 [TR-4120, Methyl 7-{3R-hydroxy-5-oxo-2R-[3R-hydroxy-3-(spiro[3.3]hept-2-yl)-1E-propenyl]cyclopent-1R-yl}heptanoate]
ED (50 mmHg) [1]: > 0.01 mg/kg
Test E Cascade Assay, Aorta, Activity Value (ED50) (rabbit aortic strip): 0 (>10000)
